The record followed here is patent US11213561B2, “Herbal methods for the improvement of sleep, social interaction, concern or worry” (Rox IP Pty Ltd., priority 2017, dated 2022).

The test system of this assay is individuals with poor sleep, anxiety, worry. Briefly: Individual cases treated with the four herb combination. To be noted: third case; patient history, prostate medication. It counts as in vivo, human. An excerpt:
For example, the four herb combination was used to treat three separate individuals, each at a different age with varying problems. The following are cases of how the four herb combination has improved the sleep onset, sleep maintenance, and energy of these individuals. […] They took Codeine and Paracetamol for 3 months, gradually reducing the dose whilst undergoing physiotherapy. The physiotherapy continued for approximately 6 months until the arm was fully functional and pain-free. One year after the original injury, their sleep was still impaired with onset and maintenance insomnia. The person stated that they “dreaded bedtime” and the hours they would be lying awake in bed. They worried during the day, with the worry increasing in the evening. […] In addition, they had changed their lifestyle avoiding commitments in the morning, and not socializing at night as they were worried that the stimulation would further impair their sleep. After 2 weeks on the herbal combination they noticed improvements. At 1 month, they were falling asleep within 20 minutes (versus over an hour before starting the treatment) and was waking up only once per night (versus 3 times or more before starting treatment). […] Their pattern was to readily fall asleep but then wake up 6 times throughout the night which led to urinating half the time, and then having difficulty returning to sleep. […]

The structures appear in SMILES notation.

For `CCOc1ccccc1OCCN[C@H](C)Cc1ccc(OC)c(S(N)(=O)=O)c1` [Flomax, Tamsulosin], the reducing night-time urination entry is “some improvement” and the waking at nights result is given as “not reduced”.
